Experimental data: US20240279283A1, “CYCLIC PEPTIDE ANTIBIOTICS” (priority 2021, published 2024)
Bridge positions count the residues as written; N and C are the ends. Square brackets hold non-standard residues; d marks the D form. Peptide text beside a SMILES is read from it. Gly(Nα-CH2CH2CONH2) = NC(=O)CCNCC(=O)O; 1Nal = N[C@@H](Cc1cccc2ccccc12)C(=O)O; d1Nal = N[C@H](Cc1cccc2ccccc12)C(=O)O; dHis(π-Me) = Cn1cncc1C[C@@H](N)C(=O)O; His(π-Me) = Cn1cncc1C[C@H](N)C(=O)O; NMeY = CN[C@@H](Cc1ccc(O)cc1)C(=O)O; dNMeY = CN[C@H](Cc1ccc(O)cc1)C(=O)O; NMeR = CN[C@@H](CCCNC(=N)N)C(=O)O; Gly(N(CH2)3NH2) = NCCCNCC(=O)O; aThr = C[C@H](O)[C@H](N)C(=O)O; Nle = CCCC[C@H](N)C(=O)O; dAbu = CC[C@@H](N)C(=O)O; Abu = CC[C@H](N)C(=O)O; Aib = CC(C)(N)C(=O)O

Experiments:
Format in all cases: cell-based
Settings in all cases: LB broth, 5×10^5 CFU/ml, 37° C., 18 hours, scored by eye
[1] = test system: E. cloacae ATCC222; assay: Minimum Inhibitory Concentration (MIC) determination, E. cloacae ATCC222; parameters: unit not given here
Experimental: (§1) MICs were determined by performing two-fold serial dilutions of peptides in LB broth to a final volume of 0.1 ml in round-bottom 96-well assay plates (Corning Life Sciences No 3788). Peptides were initially resuspended in 100% DMSO to 10 mM and subsequently diluted in LB medium to the appropriate concentration. Each well was inoculated with 5×10^5 CFU/ml of the screening stain and incubated at 37° C. without agitation for 18 hours. Plates were scored by eye, and the lowest compound concentration preventing visible growth was determined to be the MIC.

[2] = test system: E. coli BW25113; assay: Minimum Inhibitory Concentration (MIC) determination, E. coli BW25113; parameters: unit not given here
Procedure, shortened: (§2)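 Peptides, diluted two-fold in LB broth from 10 mM DMSO stocks, were inoculated with 5×10^5 CFU/ml of each strain. Incubation was 18 h at 37 °C without shaking. MIC is the lowest concentration preventing visible growth, scored by eye.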

[3] = test system: K. pneumoniae ATCC43816; assay: Minimum Inhibitory Concentration (MIC) determination, K. pneumoniae ATCC43816; parameters: unit not given here
Experimental: as §1

[4] = test system: E. coli 25922 IMP; assay: Minimum Inhibitory Concentration (MIC) determination, E. coli 25922 IMP
Procedure, shortened: as §2

[5] = test system: E. coli 25922; assay: Minimum Inhibitory Concentration (MIC) determination, E. coli 25922; parameters: unit not given here
Experimental: as §1

Structure (SMILES) | MIC E. cloacae ATCC222 WUXI::MIC [1] | MIC E. coli BW25113 WUXI::MIC [2] | MIC K. pneumoniae ATCC43816 Wuxi::MIC [3] | MIC E. coli 25922 IMP WUXI::MIC [4] | MIC E. coli 25922 WUXI::MIC [5]
CC[C@@H]1NC(=O)[C@H](Cc2ccccc2)NC(=O)CSC[C@@H](C(=O)NCC(N)=O)NC(=O)[C@H](Cc2cncn2C)NC(=O)[C@H](CCCNC(=N)N)NC(=O)[C@H](Cc2cnc[nH]2)NC(=O)[C@H](Cc2ccc(O)cc2)N(C)C(=O)[C@H](CCCNC(=N)N)NC(=O)[C@H](CO)NC(=O)CNC(=O)[C@H](C)NC(=O)[C@H](Cc2cccc3ccccc23)NC1=O (stereo in doubt) [Compound 35] | 100 | 100 | 100 | 3.1 | 100
CC[C@@H]1NC(=O)[C@H](Cc2ccccc2)NC(=O)CSC[C@@H](C(=O)NCC(N)=O)NC(=O)[C@H](Cc2cncn2C)NC(=O)[C@H](CCCNC(=N)N)NC(=O)[C@H](Cc2cnc[nH]2)NC(=O)[C@H](Cc2ccc(O)cc2)N(C)C(=O)[C@H](CCCNC(=N)N)NC(=O)[C@H](CO)NC(=O)CNC(=O)[C@H](Cc2cnc[nH]2)NC(=O)[C@H](Cc2cccc3ccccc23)NC1=O (racemic) [Compound 16] | 0.2633 | 14.767 | 8.5333 | 1.577 | 27.32
CCCC[C@@H]1NC(=O)CSC[C@@H](C(=O)NCC(N)=O)NC(=O)[C@H](Cc2cncn2C)NC(=O)[C@H](CCCNC(=N)N)NC(=O)[C@H](Cc2c[nH]cn2)NC(=O)[C@H](Cc2ccc(O)cc2)N(C)C(=O)[C@H](CCCNC(=N)N)NC(=O)[C@H](CO)NC(=O)CNC(=O)[C@H](Cc2c[nH]cn2)NC(=O)[C@H](Cc2cccc3ccccc23)NC(=O)[C@H](CC)NC1=O [Compound 20] ({CH2CO}-[Nle][Abu][1Nal]HGSR[NMeY]HR[His(π-Me)]CG-NH2; thioether N-12) | 1.6 | 25 | 25 | 0.0078 | 13
CC[C@H]1NC(=O)[C@@H](Cc2ccccc2)NC(=O)CSC[C@H](C(=O)NCC(N)=O)NC(=O)[C@@H](Cc2cncn2C)NC(=O)[C@@H](CCCNC(=N)N)NC(=O)[C@@H](Cc2c[nH]cn2)NC(=O)[C@@H](Cc2ccc(O)cc2)N(C)C(=O)[C@@H](CCCNC(=N)N)NC(=O)[C@@H](CO)NC(=O)[C@@H](CCCNC(=N)N)NC(=O)[C@@H](Cc2c[nH]cn2)NC(=O)[C@@H](Cc2cccc3ccccc23)NC1=O [Compound 28] ({CH2CO}-[dF][dAbu][d1Nal][dH][dR][dS][dR][dNMeY][dH][dR][dHis(π-Me)][dC]G-NH2; thioether N-12) | 0.2 | 6.3 | 3.1 | 0.002 | 3.1
CC[C@@H]1NC(=O)[C@H](Cc2ccccc2)NC(=O)CSC[C@@H](C(=O)NCC(N)=O)NC(=O)[C@H](Cc2cncn2C)NC(=O)[C@H](CCCNC(=N)N)NC(=O)[C@H](Cc2c[nH]cn2)NC(=O)[C@H](Cc2ccc(O)cc2)N(C)C(=O)[C@H](CCCNC(=N)N)NC(=O)[C@H](CO)NC(=O)[C@@H](C)NC(=O)[C@H](Cc2c[nH]cn2)NC(=O)[C@H](Cc2cccc3ccccc23)NC1=O [Compound 26] ({CH2CO}-F[Abu][1Nal]H[dA]SR[NMeY]HR[His(π-Me)]CG-NH2; thioether N-12) | 0.78 | 6.3 | 25 | 0.0039 | 3.1
CC[C@H](C)[C@@H]1NC(=O)[C@H](Cc2ccccc2)NC(=O)CSC[C@@H](C(=O)NCC(N)=O)NC(=O)[C@H](Cc2cncn2C)NC(=O)[C@H](CCCNC(=N)N)NC(=O)[C@H](Cc2cnc[nH]2)NC(=O)[C@H](Cc2ccccc2)N(C)C(=O)[C@H](CCCNC(=N)N)NC(=O)[C@H](CO)NC(=O)CNC(=O)[C@H](Cc2cnc[nH]2)NC(=O)[C@H](Cc2c[nH]c3ccccc23)NC1=O (racemic) [Compound 15] | 3.1 | 100 | 75 | 0.016 | 50
CC[C@@H]1NC(=O)[C@H](Cc2ccccc2)NC(=O)CSC[C@@H](C(=O)NCC(N)=O)NC(=O)[C@H](Cc2cncn2C)NC(=O)[C@H](CCCNC(=N)N)NC(=O)[C@H](Cc2c[nH]cn2)NC(=O)[C@H](Cc2ccc(O)cc2)N(C)C(=O)[C@H](CCCNC(=N)N)NC(=O)[C@H]([C@H](C)O)NC(=O)CNC(=O)[C@H](Cc2c[nH]cn2)NC(=O)[C@H](Cc2cccc3ccccc23)NC1=O [Compound 31] ({CH2CO}-F[Abu][1Nal]HG[aThr]R[NMeY]HR[His(π-Me)]CG-NH2; thioether N-12) | 6.3 | 50 | 50 | 0.016 | 25
CC[C@@H]1NC(=O)[C@H](Cc2ccccc2)NC(=O)CSC[C@@H](C(=O)NCC(N)=O)NC(=O)[C@H](Cc2cncn2C)NC(=O)[C@H](CCCNC(=N)N)NC(=O)[C@H](Cc2c[nH]cn2)NC(=O)[C@H](Cc2ccc(O)cc2)N(C)C(=O)[C@H](CCCNC(=N)N)NC(=O)[C@H](CO)NC(=O)CN(CCCN)C(=O)[C@H](Cc2c[nH]cn2)NC(=O)[C@H](Cc2cccc3ccccc23)NC1=O [Compound 29] ({CH2CO}-F[Abu][1Nal]H[Gly(N(CH2)3NH2)]SR[NMeY]HR[His(π-Me)]CG-NH2; thioether N-12) | 0.1 | 6.3 | 3.1 | 0.001 | 1.6
CC[C@@H]1NC(=O)[C@H](Cc2ccccc2)NC(=O)CSC[C@@H](C(=O)NCC(N)=O)NC(=O)[C@H](Cc2cncn2C)NC(=O)[C@H](CCCNC(=N)N)NC(=O)[C@H](Cc2c[nH]cn2)NC(=O)[C@H](Cc2ccc(O)cc2)N(C)C(=O)[C@H](CCCNC(=N)N)NC(=O)[C@H](CO)NC(=O)CN(CCC(N)=O)C(=O)[C@H](Cc2c[nH]cn2)NC(=O)[C@H](Cc2cccc3ccccc23)NC1=O [Compound 30] ({CH2CO}-F[Abu][1Nal]H[Gly(Nα-CH2CH2CONH2)]SR[NMeY]HR[His(π-Me)]CG-NH2; thioether N-12) | 1.6 | 50 | 100 | 0.016 | 25
CC[C@H](C)[C@@H]1NC(=O)[C@H]([C@@H](C)O)NC(=O)[C@H](Cc2cncn2C)NC(=O)[C@H](Cc2ccccc2)NC(=O)CSC[C@@H](C(=O)NCC(N)=O)NC(=O)[C@H](Cc2ccc(O)cc2)NC(=O)[C@H](Cc2c[nH]c3ccccc23)NC(=O)[C@H](Cc2ccc(O)cc2)NC(=O)[C@H](Cc2cncn2C)NC(=O)[C@H](Cc2ccccc2)NC(=O)C(C)(C)NC(=O)[C@H](CCCNC(=N)N)NC(=O)[C@H](CCCCN)NC(=O)[C@H](CCCNC(=N)N)NC1=O [Compound 51] ({CH2CO}-F[His(π-Me)]TIRKR[Aib]F[His(π-Me)]YWYCG-NH2; thioether N-14) | >32 | 8 | >32 | 0.5 | 8
CC[C@@H]1NC(=O)[C@H](Cc2ccccc2)NC(=O)CSC[C@@H](C(=O)NCC(N)=O)NC(=O)[C@H](Cc2cncn2C)NC(=O)[C@H](CCCNC(=N)N)N(C)C(=O)[C@H](Cc2c[nH]cn2)NC(=O)[C@H](Cc2ccc(O)cc2)N(C)C(=O)[C@H](CCCNC(=N)N)NC(=O)[C@H](CO)NC(=O)CNC(=O)[C@H](Cc2c[nH]cn2)NC(=O)[C@H](Cc2cccc3ccccc23)NC1=O [Compound 34] ({CH2CO}-F[Abu][1Nal]HGSR[NMeY]H[NMeR][His(π-Me)]CG-NH2; thioether N-12) | 6.3 | 100 | 25 | 0.063 | 41.667
CC[C@@H](C)[C@H]1NC(=O)[C@@H](Cc2ccccc2)NC(=O)CSC[C@H](C(=O)NCC(N)=O)NC(=O)[C@@H](Cc2cncn2C)NC(=O)[C@@H](CCCNC(=N)N)NC(=O)[C@@H](Cc2cnc[nH]2)NC(=O)[C@@H](Cc2ccccc2)N(C)C(=O)[C@@H](CCCNC(=N)N)NC(=O)[C@@H](CO)NC(=O)CNC(=O)[C@@H](Cc2cnc[nH]2)NC(=O)[C@@H](Cc2cccc3ccccc23)NC1=O (racemic) [Compound 17] | 3.1 | 50 | 37.5 | 0.002 | 13
